# Legend:
# [1] = system: neuroblastoma-spinal cord hybrid NSC-34 cells; experiment: Neuroprotective effect/cell viability analysis in NSC-34 cells against H2O2 induced oxidative stress; assay type: cell-based; conditions: 250 μM H2O2
# Experimental: Methods: The in vitro properties and antioxidant abilities of the synthesized B^5-EDR analogues were assessed in cell-based assays. […] The methodology employed for each of these assays is detailed below.
# (iii) Methodology for neuroprotective effect/cell viability analysis in (NSC-34) cells (FIGS. 8A-B): Briefly, NSC-34 cells with about 20 k cells per well in 96 well plates were cultured in a complete medium consisting of high glucose Dulbecco's modified eagle medium (DMEM) (Thermo Fisher Scientific) supplemented with about 10% US-origin fetal bovine serum (Thermo Fisher Scientific), GlutaMAX-1, about 200 mM (100×) (Thermo Fisher Scientific), about 1% 100 mM Sodium pyruvate and about 1% 10,000 U/mL penicillin-streptomycin solution (Thermo Fisher Scientific) for about 20 h to reach confluency of about 70%—about 75%. All the cells were cultured in an incubator with about 5% of CO2 at about 37° C. About 20 kcells/100 μl/well were seeded in 96 well plates for about 20 h in triplicates. […] After about 1 h, the cells were treated with 250 μM of H2O2 for about 2 h. After a total period of about 3 h, about 10 μl of WST-8 reagent was added in each well and the absorbance readings were recorded after about 2.5 h at about 450 nm. All the experiments were repeated at least three times and measurements were run in triplicates.
# WG37R mice = experiment: 14-day acute toxicity assessment in WG37R mice; assay type: in vivo; conditions: for H&E histology compared with control mice / signs of overt degeneration, inflammation and necrosis in examined tissues: single IP 10 mg/kg
# Experimental: The WG37R mice were randomly assigned to 2 groups: For the first set of the experiment, a total of 6 animals per group (3 male and 3 female) were used in the study. Group 1: Sham treatment 1 (1:20 DMSO/PBS) and Group 2: NS-1-2 (10 mg/kg body weight). According to requirement of acute toxicity study, 6-10 animals should be used to evaluate the effect of a substance. However, as the new analogues are structurally similar to Edaravone, having a single-dose safety profile of 450 mg/kg, the mortality of the Edaravone analogues at a dose of 10 mg/kg body weight/day was not expected. Considering the above facts, for the present acute study, the minimum number of animals was 6 per group. Morphological alterations, histological changes, and mean body weight assessments for whole set of animals, for both the WG37R control groups (N=6; 1:20, DMSO:PBS) and WG37R treated groups (N=6; NS-1-2; 10 mg/kg bodyweight) were assessed during the 14-day acute toxicity assessment, by giving a single IP injection to the mouse at 2 months of age (see further detail in (iia) below.
# For intraperitoneal administration, about 1:20 of DMSO/PBS, at a pH of about 7.4 was used for the suspension of NS-1-2 test substance. Edaravone was dissolved in about 1 mL of about 1 mol/L NaOH and adjusted to about pH 7.4 by adding about 1 mol/L HCl, and then diluted in saline. A volume of about 400 μl from final reconstituted solution was aliquoted and stored in about −80° C., until further use. For acute toxicity experiments, a single dose of about 10 mg/kg bodyweight of NS-1-2 was intraperitoneally injected to group 2, WG37R mice model at the age of 2 months. The WG37R mice in the group 1 received an injection of equal volume of (about 1:20; DMSO:PBS) instead. For chronic toxicity experiments, 120 daily doses of about 10 mg/kg bodyweight of NS-1-2 was intraperitoneally injected to group 4, WG37R mice model at the age of 3 months for 120 days, until the age of 7 months. The WG37R mice in the group 3 received an injection of equal volume of (about 1:20; DMSO:PBS) instead.
# Wild type (WT) G37R mice received a single dose (about 0.2 mls) IP injection of Sham suspended in (about 1:20; DMSO:PBS) and a single dose of about 10 mg/kg bodyweight (about 0.2 mls) IP injection of NS-1-2 suspended in about 1:20; DMSO:PBS at the age of 2 months. […] At the experimental endpoint, the mice were first deeply anesthetized with a mixture of about 20% v/v isoflurane/propylene glycol (about 1 ml of the mixture per about 500 ml of bell jar space, University of Manitoba animal care SOP A003) and than exsanguination was done by cutting the animal's right atrium followed by an intracardiac perfusion with about 0.9% NaCl. During perfusion, syringe barrel nosecone was used for prolonged anesthesia. Cardiac perfusion was followed by perfusion with about 4% paraformaldehyde for histology (H&E staining) analysis. Mouse tissues (brain, heart, spinal cord, kidney, liver, muscle, lung, and spleen) were fixed for about 48 h in about 4% buffered formalin at about 4° C. Only the spinal cord was processed after about 24 h to remove the spine and again fixed for about another 24 h. Samples were processed and embedded into paraffin blocks at the Histomorphology and Ultrastructural Imaging platform, Dept. of Human Anatomy and Cell Science, University of Manitoba. Briefly, the embedded tissues were cut into about 5 μm thickness, mounted on super frost plus slides and dried overnight at about 37° C. Slides were deparaffinized in about 2 changes of xylene and rehydrated in descending alcohols (about 2 changes of about 100% Ethanol and about 2 changes of about 95% Ethanol) and tap water. Slides were stained with Harris Haematoxylin followed by differentiation with acid alcohol. After rinsing in tap water, saturated lithium carbonate was used for Bluing the nucleus. After that the slides were rinsed in tap water and counter stained with eosin. […]
# [2] = system: neuroblastoma-spinal cord hybrid NSC-34 cells; experiment: Neuroprotective effect/cell viability analysis in NSC-34 cells against H2O2 induced oxidative stress; assay type: cell-based; conditions: prophylactic treatment, 250 μM H2O2, FIG. 7A
# [3] = single 10 mg/kg IP dose, 2 weeks monitoring
smiles,measurement,setting,value
"Cc1cc(B2OC(C)(C)C(C)(C)O2)n(-c2ccccc2)n1 [NS-1-2, 3-methyl-5-(4,4,5,5-tetramethyl-1,3,2-dioxaborolan-2-yl)-1-phenyl1H-pyrazole]",neuroprotection in scavenging neurotoxic effects of H2O2 compared to EDR,[1]; 1 μM,better neuroprotection
same,neuroprotection in scavenging neurotoxic effects of H2O2 compared to EDR,[1]; 25 μM,better neuroprotection
same,viability compared to EDR,[1]; 50 μM dose,almost equal viability
same,H&E histology compared with control mice,"WG37R mice; G37RWT female mice, FIG. 13",no significant differences with respect to control mice
same,"signs of overt degeneration, inflammation and necrosis in examined tissues","WG37R mice; G37RWT female mice, FIG. 13","no signs of overt degeneration, inflammation and necrosis"
same,H&E histology compared with control mice,"WG37R mice; G37RWT male mice, FIG. 12",no significant differences with respect to control mice
same,"signs of overt degeneration, inflammation and necrosis in examined tissues","WG37R mice; G37RWT male mice, FIG. 12","no signs of overt degeneration, inflammation and necrosis"
same,changes in body weight,"WG37R mice; acute treatment, 10 mg/kg, FIG. 10",did not induce any abnormal changes in the body weight
same,daily general observations,WG37R mice; [3],"normal appearance, normal general behaviour with well-conditioned body condition"
same,treatment-related deaths,WG37R mice; [3],No acute treatment-related deaths
same,protection from loss of cell viability induced by H2O2,[2],protected NSC-34 cells from loss of cell viability

# Reference: US20260232706A1, “1H-PYRAZOLE ANALOGUES AND METHODS AND USES THEREOF” (University of Manitoba, priority 2022, published 2026)
